Reference: patent US7807663B2, “Therapeutic agents for diabetes” (Ajinomoto Co., Inc., priority 2003, dated 2010)
Values after ≈ are worked out from the molar mass of the structure shown.

Tests used:
adipose cells of rats = experiment: Evaluation of the sugar transportation activity (2-[14C(U)]-deoxy-D-glucose incorporation); type: cell-based, Wistar rats; conditions: concentration with reinforcing effect of 50% of that of insulin (100 nM) = 100%; rat adipose cells, 30 min pre-culture at 37° C., 5 min uptake
Outline: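 Collagenase-isolated epididymal adipocytes from male Wistar rats in 2% BSA/KRH (pH 7.6) preincubated with compound 30 min at 37 °C, then pulsed with 2-[14C(U)]-deoxy-D-glucose (0.5 μCi/sample) 5 min; uptake stopped with 10 μM cytochalasin B, cells separated through dinonyl phthalate and counted by scintillation. EC50 (μg/mL) = concentration giving 50% of the 100 nM insulin effect.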

C57BL/6NCrj mice = experiment: Combinational effect with insulin secretagogue (gliclazide) using normal mice (Example 1); type: in vivo; conditions: compound 100 mg/kg oral combined with gliclazide 3 mg/kg oral, compared with alone groups
Description: FIG. 1 is a chart showing a combinational effect of the compound (II) and gliclazide in Example 1 (average value±standard deviation, each group N=4).
The compound (II) of the Compound No. 96 in above Table 1, which is indicated by the following structural formula, was used for the investigation. The compound is that described as Example 129 in WO02/44180 and synthesized in accordance with the method described in the international publication.
(§1) The compound (II) (100 mg/kg) was orally administered to C57BL/6NCrj mice (11 week age, male) and soon after that, gliclazide (3 mg/kg) was orally administered. After administration, the blood was taken from their caudal veins over time to determine the blood glucose level. Area under the curve of blood glucose level changes until 70 minutes after the administration was set as an index and variations from a control group (Vehicle administered group) were compared.

KK-Ay mice = experiment: Combinational effect with biguanide (metformin) using KK-Ay mice (Example 4); type: in vivo; conditions: combined with metformin, compared with alone groups, same experiment as Example 3
Description: (§2) The compound (III) (30 mg/kg) was orally administered to C57BL/KsJ-db/bdJcl mice (10 week age, male) and soon after that, metformin (100 mg/kg) was orally administered. 60 minutes after administration, the blood was taken from their caudal veins to determine the blood glucose level.
The same experiment is conducted as that of Example 3 except that the compounds of the Compound Nos. 6, 8, 62, 80, 81, 88, 91, 96, 105, 106, 129, 130, 131 and 132 in Tables 1 and 2 are used instead of the compound (III), and KK-Ay mice are used instead of db/bd mice.

C57BL/KsJ-db/bdJcl mice [1] = experiment: Combinational effect with glitazone (pioglitazone) using db/db mice, oral glucose load (Examples 5 and 6); type: in vivo; conditions: single oral administration combined with pioglitazone 10 mg/kg/day oral for 10 days, compared with alone groups
Description: The oral glucose load experiments are conducted using C57BL/KsJ-db/bdJcl mice in the conditions with or without the oral administeration of pioglitazone (10 mg/kg/day) for 10 days and with or without a single oral administration of the compound (III).
The same experiment is conducted as that of Example 5 except that the compounds of the Compound Nos. 6, 8, 62, 80, 81, 88, 91, 96, 105, 106, 129, 130, 131 and 132 in Tables 1 and 2 are used instead of the compound (III).

C57BL/KsJ-db/bdJcl mice [2] = experiment: Combinational effect with insulin using db/db mice (Examples 7 and 8); type: in vivo; conditions: combined with insulin 0.2 U/kg, compared with alone groups, same experiment as Example 3
Description: The compound (III) (30 mg/kg) was orally administered to C57BL/KsJ-db/bdJcl mice (10 week age, male) and soon after that, metformin (100 mg/kg) was orally administered. 60 minutes after administration, the blood was taken from their caudal veins to determine the blood glucose level. The same experiment is conducted as that of Example 3 except that insulin (0.2 U/kg) is used instead of metformin. […] The same experiment is conducted as that of Example 7 except that the compounds of the Compound Nos. 6, 8, 62, 80, 81, 88, 91, 96, 105, 106, 129, 130, 131 and 132 in Tables 1 and 2 are used instead of the compound (III).

GK rats = experiment: Combinational effect with insulin secretagogue (gliclazide) using GK rats (Example 2); type: in vivo; conditions: combined with gliclazide, compared with alone groups, same experiment as Example 1
Description: as §1
The same experiment is conducted as that of Example 1 except that the compounds of the Compound Nos. 6, 8, 62, 80, 81, 88, 91, […], 105, 106, 129, 130, 131 and 132 in Tables 1 and 2 are used instead of the compound (II), and GK rats are used instead of normal mice.

C57BL/KsJ-db/bdJcl mice [3] = experiment: Combinational effect with biguanide (metformin) using db/db mice (Example 3); type: in vivo; conditions: compound 30 mg/kg oral combined with metformin 100 mg/kg oral, compared with alone groups
Description: FIG. 2 is a chart showing a combinational effect of the compound (III) and metformin in Example 3 (average value+standard deviation, each group N=6).
The compound (III) of the Compound No. 98 in above Table 1, which is indicated by the following structural formula, was used for the investigation. The compound is that described as Example 131 in WO02/44180 and synthesized in accordance with the method described in the international publication.
as §2

| EC50 (adipose cells of rats) | SMILES | hypoglycemic action (area under the curve of blood glucose level changes until 70 minutes, variation from vehicle group) (C57BL/6NCrj mice) | hypoglycemic action (blood glucose level) (KK-Ay mice) | hypoglycemic action (oral glucose load) (C57BL/KsJ-db/bdJcl mice [1]) | hypoglycemic action (blood glucose level) (C57BL/KsJ-db/bdJcl mice [2]) | hypoglycemic action (blood glucose level) (GK rats) | hypoglycemic action (blood glucose level 60 minutes after administration) (C57BL/KsJ-db/bdJcl mice [3]) |
| --- | --- | --- | --- | --- | --- | --- | --- |
| 5.4 µg/mL (≈ 13.6 µM) | CCOCC(=O)N1[C@@H]2CCCC[C@H]2NC2=C(C(=O)NC2)[C@H]1c1ccccc1CC [Compound 96] | remarkable hypoglycemic action | remarkable hypoglycemic action | remarkable hypoglycemic action | remarkable hypoglycemic action |  |  |
| 4 µg/mL (≈ 11.3 µM) | CCc1ccccc1[C@@H]1C2=C(CNC2=O)N[C@@H]2CCCC[C@H]2N1C(C)=O [Compound 98] |  |  | remarkable hypoglycemic action | remarkable hypoglycemic action | remarkable hypoglycemic action | remarkable hypoglycemic action |
